This note sets out measurements from patent US9249125B2, “Pyrazole derivatives as p38 MAP inhibitors” (RESPIVERT LIMITED, priority 2012, dated 2016).

In series [1] the test system is Poly I:C-induced ICAM-1 expression in BEAS2B cells. The series can be described thus: Poly I:C-induced ICAM-1 expression in BEAS2B cells. In kind it is cell-based. Particulars: Homo sapiens, BEAS-2B, read-out: Poly IC induced ICAM1 in BEAS2B IC50. The method, boiled down: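 Cell-based ELISA read at 450 nm minus 655 nm, divided by crystal violet OD595 to normalize for cell number, gave ICAM-1 levels. Readout was taken 18 hr after poly I:C (1 μg/mL, Oligofectamine) transfection of human bronchial BEAS2B cells pretreated 2 hr with test compound.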

The test system of a further series is d-U937 cells. The series can be described thus: Cell viability: MTT assay. In kind it is cell-based, human. As to conditions: 1 μg/mL. The method, boiled down:
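MTT read-out (1 h, absorbance 550 nm) on d-U937 cells after pre-incubation with 1 or 10 μg/mL compound under two regimes: 4 h, 5% FCS, or 24 h, 10% FCS RPMI1640. Values are percent loss of viability relative to vehicle (0.5% DMSO), so increases are reported as negative.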
(Tetrazolium assays rely on reduction of a dye to a coloured formazan, in cell work by metabolically active cells.)

Another series addresses p38 MAPKα (Homo sapiens (Human), UniProt Q16539). The series can be described thus: p38 MAPKα enzyme inhibition (FRET, Z-LYTE). In kind it is biochemical.
Another series addresses cSrc (Homo sapiens (Human), UniProt P12931). The series can be described thus: c-Src enzyme inhibition (FRET, Z-LYTE). The class given is biochemical. The method, boiled down:
(§1)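 Z-LYTE FRET kinase assay: enzyme (3000 or 2000 ng/mL stock, respectively) preincubated 2 h at RT with compound (4–0.004 μg/mL stocks), then FRET peptide plus ATP (800 μM stock for c-Src, 60 μM for Syk) added for 1 h. Protease development 1 h; phosphorylation from coumarin/fluorescein emission ratio.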

The subject of series [2] is LPS-induced IL-8 release in d-U937 cells. The series is described as follows: LPS-induced IL-8 release in d-U937 cells. In kind it is cell-based. Particulars: Homo sapiens, dU937, read-out: LPS Induced Release of Cytokine in d-937 Cells IL-8 IC50. The method, boiled down: (§2)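 Sandwich ELISA of culture supernatant gives TNFα and IL-8 levels after a 4 hr challenge with LPS (0.1 μg/mL, E. coli O111:B4). Before stimulation, macrophage-like U937 cells, obtained by 48–72 hr in PMA at 100 ng/mL, sit with compound for 2 hr. Relative EC50 is derived from concentration-response data.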

The test system of series [3] is LPS-induced TNFα release in d-U937 cells. The series is described as follows: LPS-induced TNFα release in d-U937 cells. In kind it is cell-based. As to conditions: Homo sapiens, dU937, relative to 10 μg/mL BIRB796, read-out: LPS Induced Release of Cytokine in d-937 Cells TNFα REC50. The method, boiled down:
as §2

The target of another series is Syk (Homo sapiens (Human), UniProt P43405). The series is described as follows: Syk enzyme inhibition (FRET, Z-LYTE). The class given is biochemical. The method, boiled down:
as §1

For the next series, the target named is GSK3α (Homo sapiens (Human), UniProt P49840). The series can be described thus: GSK 3α enzyme inhibition (FRET, Z-LYTE). In kind it is biochemical. The method, boiled down:
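Phosphorylation was read as the donor (coumarin) to acceptor (fluorescein) ratio after a 1 hr protease step destroying non-phosphorylated peptide. Before this, compound (4–0.004 μg/mL stocks) sat 2 hr at RT with GSK3α (500 ng/mL stock), followed by 1 hr kinase reaction with 8 μM peptide and 40 μM ATP stocks.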

Sequence of GSK3α (P49840 whole entry): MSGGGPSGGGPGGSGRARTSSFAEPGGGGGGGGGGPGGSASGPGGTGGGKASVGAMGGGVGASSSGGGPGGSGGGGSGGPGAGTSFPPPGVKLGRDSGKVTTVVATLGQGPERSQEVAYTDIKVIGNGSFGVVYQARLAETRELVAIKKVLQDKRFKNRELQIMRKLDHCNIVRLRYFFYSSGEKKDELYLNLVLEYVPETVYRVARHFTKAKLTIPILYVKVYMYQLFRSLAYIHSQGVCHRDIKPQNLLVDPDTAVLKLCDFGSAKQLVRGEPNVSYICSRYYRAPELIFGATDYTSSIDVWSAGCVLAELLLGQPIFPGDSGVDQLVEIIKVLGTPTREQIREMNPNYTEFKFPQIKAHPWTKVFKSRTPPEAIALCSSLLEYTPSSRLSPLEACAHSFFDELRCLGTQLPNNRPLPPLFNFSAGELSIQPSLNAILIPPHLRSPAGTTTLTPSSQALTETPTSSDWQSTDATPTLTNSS
Sequence of cSrc (P12931 whole entry, looked up): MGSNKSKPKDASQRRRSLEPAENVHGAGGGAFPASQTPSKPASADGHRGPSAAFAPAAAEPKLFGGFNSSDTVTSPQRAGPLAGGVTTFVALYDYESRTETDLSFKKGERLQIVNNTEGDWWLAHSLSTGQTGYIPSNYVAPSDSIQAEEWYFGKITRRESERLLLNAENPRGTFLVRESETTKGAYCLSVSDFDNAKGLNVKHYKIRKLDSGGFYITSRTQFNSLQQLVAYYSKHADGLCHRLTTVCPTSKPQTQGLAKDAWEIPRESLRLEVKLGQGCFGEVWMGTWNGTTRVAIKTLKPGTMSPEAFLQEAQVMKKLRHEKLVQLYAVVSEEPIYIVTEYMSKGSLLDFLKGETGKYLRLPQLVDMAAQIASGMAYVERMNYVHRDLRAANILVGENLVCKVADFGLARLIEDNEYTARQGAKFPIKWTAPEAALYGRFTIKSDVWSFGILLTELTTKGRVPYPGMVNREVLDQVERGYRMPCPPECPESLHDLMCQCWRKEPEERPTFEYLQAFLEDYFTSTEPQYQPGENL
Sequence of p38 MAPKα (Q16539 whole entry): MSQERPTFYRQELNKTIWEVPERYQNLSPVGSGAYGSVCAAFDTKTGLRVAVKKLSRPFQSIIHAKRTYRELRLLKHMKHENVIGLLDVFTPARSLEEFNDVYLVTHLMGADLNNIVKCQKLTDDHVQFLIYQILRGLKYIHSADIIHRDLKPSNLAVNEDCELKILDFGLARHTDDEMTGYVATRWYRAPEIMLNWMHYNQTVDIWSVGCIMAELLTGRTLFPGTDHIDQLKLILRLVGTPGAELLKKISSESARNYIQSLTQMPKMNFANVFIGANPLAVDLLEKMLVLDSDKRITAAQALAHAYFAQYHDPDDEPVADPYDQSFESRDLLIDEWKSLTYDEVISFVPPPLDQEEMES

In general, IC50 refers to the concentration that gives 50% inhibition. For `CC(C)(C)c1cc(NC(=O)Nc2ccc(Oc3ccnc(Nc4ccc5c(c4)CS(=O)(=O)C5)n3)c3ccccc23)n(-c2ccc(OCCN3CCOCC3)cc2)n1` [Example 64, 1-(3-(tert-butyl)-1-(4-(2-morpholinoethoxy)phenyl)-1H-pyrazol-5-yl)-3-(4-((2-((2,2-dioxido-1,3-dihydrobenzo[c]thiophen-5-yl)amino)pyrimidin-4-yl)oxy)naphthalen-1-yl)urea], the IC50 in series [1] amounted to 0.01 nM; on p38 MAPKα, 67 nM; against cSrc it was 3 nM; in series [2], 1.3 nM; at Syk, 20 nM; against GSK3α, 437 nM. Further, the “MTT Assay Cell viability at time point in d-U937 cells 4 h” value in the series with d-U937 cells is “−ve (−ve and +ve indicate that the value is below and above respectively, the no significant effect threshold, defined as 30% inhibition at 1 μg/mL at the time point indicated.)”. In the series with d-U937 cells, the “MTT Assay Cell viability at time point in d-U937 cells 24 h” value was “−ve (−ve and +ve indicate that the value is below and above respectively, the no significant effect threshold, defined as 30% inhibition at 1 μg/mL at the time point indicated.)”. In addition, the EC50 in series [3] came out at 1.1 nM.

Consider `CC(C)(C)c1cc(NC(=O)Nc2ccc(Oc3ccnc(Nc4ccc5ncsc5c4)n3)c3ccccc23)n(-c2ccc(OCCN3CCOCC3)cc2)n1` [Example 80, 1-(4-((2-(benzo[d]thiazol-6-ylamino)pyrimidin-4-yl)oxy)naphthalen-1-yl)-3-(3-(tert-butyl)-1-(4-(2-morpholinoethoxy)phenyl)-1H-pyrazol-5-yl)urea], for which the half-inhibitory concentration (IC50) was found to be 1.9 nM in series [1]; 86 nM on p38 MAPKα; 9 nM against cSrc; 1.9 nM in series [2]; 25 nM on Syk; 461 nM at GSK3α. Further, in the series with d-U937 cells, the “MTT Assay Cell viability at time point in d-U937 cells 4 h” value is “−ve (−ve and +ve indicate that the value is below and above respectively, the no significant effect threshold, defined as 30% inhibition at 1 μg/mL at the time point indicated.)”. The “MTT Assay Cell viability at time point in d-U937 cells 24 h” value in the series with d-U937 cells was “−ve (−ve and +ve indicate that the value is below and above respectively, the no significant effect threshold, defined as 30% inhibition at 1 μg/mL at the time point indicated.)”. In addition, in series [3], the EC50 came out at 1.5 nM.

For the compound `CC(C)(C)c1cc(NC(=O)Nc2ccc(Oc3ccnc(Nc4ccc5[nH]nnc5c4)n3)c3ccccc23)n(-c2ccc(OCCN3CCOCC3)cc2)n1` [Example 81, 1-(4-((2-((1H-benzo[d][1,2,3]triazol-5-yl)amino)pyrimidin-4-yl)oxy)naphthalen-1-yl)-3-(3-(tert-butyl)-1-(4-(2-morpholinoethoxy)phenyl)-1H-pyrazol-5-yl)urea], the IC50 worked out at 10 nM in series [1]; 66 nM on p38 MAPKα; 5 nM against cSrc; 1.6 nM in series [2]; 14 nM against Syk; 641 nM at GSK3α. The “MTT Assay Cell viability at time point in d-U937 cells 4 h” value in the series on d-U937 cells was “−ve (−ve and +ve indicate that the value is below and above respectively, the no significant effect threshold, defined as 30% inhibition at 1 μg/mL at the time point indicated.)”. Moreover, the “MTT Assay Cell viability at time point in d-U937 cells 24 h” value in the series on d-U937 cells was “−ve (−ve and +ve indicate that the value is below and above respectively, the no significant effect threshold, defined as 30% inhibition at 1 μg/mL at the time point indicated.)”. The EC50 in series [3] was determined as 1.4 nM.

For the compound `CC(C)(C)c1cc(NC(=O)Nc2ccc(Oc3ccnc(Nc4ccc5oc(=O)[nH]c5c4)n3)c3ccccc23)n(-c2ccc(OCCN3CCOCC3)cc2)n1` [Example 76, 1-(3-(tert-butyl)-1-(4-(2-morpholinoethoxy)phenyl)-1H-pyrazol-5-yl)-3-(4-((2-((2-oxo-2,3-dihydrobenzo[d]oxazol-5-yl)amino)pyrimidin-4-yl)oxy)naphthalen-1-yl)urea], the 50% inhibitory concentration (IC50) in series [1] came to 2.2 nM; at p38 MAPKα, 48 nM; on cSrc it was 15 nM; in series [2], 0.3 nM; on Syk, 34 nM; on GSK3α, 777 nM. In the series on d-U937 cells, the “MTT Assay Cell viability at time point in d-U937 cells 4 h” value was “−ve (−ve and +ve indicate that the value is below and above respectively, the no significant effect threshold, defined as 30% inhibition at 1 μg/mL at the time point indicated.)”. In addition, the “MTT Assay Cell viability at time point in d-U937 cells 24 h” value in the series on d-U937 cells was “−ve (−ve and +ve indicate that the value is below and above respectively, the no significant effect threshold, defined as 30% inhibition at 1 μg/mL at the time point indicated.)”. Moreover, the EC50 in series [3] came to 12.5 nM.

In the case of `COc1ccc(-n2nc(C(C)C)cc2NC(=O)Nc2ccc(Oc3ccnc(Nc4ccc5[nH]nc(C(=O)N(C)C)c5c4)n3)c3ccccc23)cc1` [Example 46, 5-((4-((4-(3-(3-isopropyl-1-(4-methoxyphenyl)-1H-pyrazol-5-yl)ureido)naphthalen-1-yl)oxy)pyrimidin-2-yl)amino)-N,N-dimethyl-1H-indazole-3-carboxamide], the half-inhibitory concentration (IC50) was 2.3 nM in series [1]; 12 nM against p38 MAPKα; below 1 nM at cSrc; 21.1 nM in series [2]; 2 nM against Syk; 908 nM against GSK3α. Besides, the “MTT Assay Cell viability at time point in d-U937 cells 4 h” value with d-U937 cells was “−ve (−ve and +ve indicate that the value is below and above respectively, the no significant effect threshold, defined as 30% inhibition at 1 μg/mL at the time point indicated.)”. Besides, the “MTT Assay Cell viability at time point in d-U937 cells 24 h” value in the series on d-U937 cells was “−ve (−ve and +ve indicate that the value is below and above respectively, the no significant effect threshold, defined as 30% inhibition at 1 μg/mL at the time point indicated.)”. In addition, the EC50 in series [3] was found to be 1.8 nM.

On to `CC(C)(C)c1cc(NC(=O)Nc2ccc(Oc3ccnc(Nc4ccc5[nH]ccc5c4)n3)c3ccccc23)n(-c2ccc(O)cc2)n1` [Example 37, 1-(4-((2-((1H-indol-5-yl)amino)pyrimidin-4-yl)oxy)naphthalen-1-yl)-3-(3-(tert-butyl)-1-(4-hydroxyphenyl)-1H-pyrazol-5-yl)urea], for which the IC50 was 3.7 nM in series [1]; 332 nM on p38 MAPKα; 16 nM at cSrc; 5.9 nM in series [2]; 142 nM against Syk; above 1600 nM against GSK3α. In the series with d-U937 cells, the “MTT Assay Cell viability at time point in d-U937 cells 4 h” value is “−ve (−ve and +ve indicate that the value is below and above respectively, the no significant effect threshold, defined as 30% inhibition at 1 μg/mL at the time point indicated.)”. The “MTT Assay Cell viability at time point in d-U937 cells 24 h” value in the series with d-U937 cells was “−ve (−ve and +ve indicate that the value is below and above respectively, the no significant effect threshold, defined as 30% inhibition at 1 μg/mL at the time point indicated.)”. Moreover, the EC50 in series [3] was found to be 2.5 nM.

On to `Cc1ccc(-n2nc(C(C)(C)C)cc2NC(=O)Nc2ccc(Oc3ccnc(Nc4ccc5c(c4)CC(=O)N5C)n3)c3ccccc23)cc1` [Example 20, 1-(3-(tert-butyl)-1-(p-tolyl)-1H-pyrazol-5-yl)-3-(4-((2-((1-methyl-2-oxoindolin-5-yl)amino)pyrimidin-4-yl)oxy)naphthalen-1-yl)urea], for which the half-inhibitory concentration (IC50) in series [1] was found to be 6.3 nM; against p38 MAPKα it was 61 nM; against cSrc, 113 nM; in series [2], 2.2 nM; against Syk it was 6 nM; on GSK3α, 900 nM. Besides, the “MTT Assay Cell viability at time point in d-U937 cells 4 h” value in the series with d-U937 cells is “−ve (−ve and +ve indicate that the value is below and above respectively, the no significant effect threshold, defined as 30% inhibition at 1 μg/mL at the time point indicated.)”. The “MTT Assay Cell viability at time point in d-U937 cells 24 h” value with d-U937 cells is “−ve (−ve and +ve indicate that the value is below and above respectively, the no significant effect threshold, defined as 30% inhibition at 1 μg/mL at the time point indicated.)”. Further, the EC50 in series [3] came out at 1.7 nM.
